Measured values published in patent US20250230193A1, “CYCLIC COMPOUND HAVING SELECTIVE KRAS INHIBITORY EFFECT ON HRAS AND NRAS” (CHUGAI SEIYAKU KABUSHIKI KAISHA, priority 2022, published 2025).
Where a SMILES comes first, the peptide text is derived from it. Bridges are numbered along the chain shown (N, C = ends). [ ]: non-standard residue; d: D form. The star is where a group is joined. ξ: configuration not given here. hPhe(3-Cl-4-CF3) = N[C@@H](CCc1ccc(C(F)(F)F)c(Cl)c1)C(=O)O; NPrPhe(4-CF3) = CCCN[C@@H](Cc1ccc(C(F)(F)F)cc1)C(=O)O; NMeGly(cPent) = CN[C@H](C(=O)O)C1CCCC1; Aze(3S-Me) = C[C@H]1CN[C@@H]1C(=O)O; NEtLeu = CCN[C@@H](CC(C)C)C(=O)O; NMeD = CN[C@@H](CC(=O)O)C(=O)O; NMeL = CN[C@@H](CC(C)C)C(=O)O; NEtAla = CCN[C@@H](C)C(=O)O; ξNMeD = CNC(CC(=O)O)C(=O)O; Morpholide = C1CN(*)CCO1; NMeA = CN[C@@H](C)C(=O)O; dNMeA = CN[C@H](C)C(=O)O; Ac5c = NC1(C(=O)O)CCCC1; Aze = O=C(O)[C@@H]1CCN1; ξP = O=C(O)C1CCCN1; NEtG = CCNCC(=O)O; Sar = CNCC(=O)O

Tests used:
[1] = molecular target: GDP-bound NRAS wild-type protein (Homo sapiens, UniProt P01111); test: Binding to NRAS by surface plasmon resonance (SPR), Single Cycle Kinetics; details: KD ratio NRAS/KRAS, SPR
Sequence of GDP-bound NRAS wild-type protein (P01111 whole entry): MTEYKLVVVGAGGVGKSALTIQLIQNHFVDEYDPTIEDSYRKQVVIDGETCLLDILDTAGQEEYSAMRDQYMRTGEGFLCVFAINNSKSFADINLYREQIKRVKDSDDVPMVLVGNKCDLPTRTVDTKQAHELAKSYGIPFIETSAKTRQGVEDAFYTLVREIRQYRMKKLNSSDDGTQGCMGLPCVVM

[2] = molecular target: GDP-bound HRAS wild-type protein (Homo sapiens, UniProt P01112); test: Binding to HRAS by surface plasmon resonance (SPR), Single Cycle Kinetics; details: KD ratio HRAS/KRAS, SPR
Sequence of GDP-bound HRAS wild-type protein (P01112 whole entry): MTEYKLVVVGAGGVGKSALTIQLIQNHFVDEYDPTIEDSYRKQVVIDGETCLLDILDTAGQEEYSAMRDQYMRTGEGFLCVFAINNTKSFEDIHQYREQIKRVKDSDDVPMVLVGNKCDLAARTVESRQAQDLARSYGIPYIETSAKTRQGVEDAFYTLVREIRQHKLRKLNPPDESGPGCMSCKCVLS

## CCCN1C(=O)[C@@H]2[C@@H](C)CN2C(=O)[C@H](C)N(C)C(=O)[C@H]([C@@H](C)CC)NC(=O)[C@H](CC(C)C)N(C)C(=O)C[C@@H](C(=O)N2CCOCC2)N(C)C(=O)[C@H](C2CCCC2)N(C)C(=O)C2(CCCC2)NC(=O)[C@@H]2CCCN2C(=O)[C@H](CCc2ccc(C(F)(F)F)c(Cl)c2)NC(=O)CN(C)C(=O)[C@@H]1Cc1ccc(C(F)(F)F)cc1 [PP0141] ([NMeL]I[NMeA][Aze(3S-Me)][NPrPhe(4-CF3)][Sar][hPhe(3-Cl-4-CF3)]P[Ac5c][NMeGly(cPent)][NMeD]-Morpholide; lactam N-11)
[1]
  NRAS/KRAS (ratio of KD for GDP-bound NRAS wild-type to KD for KRAS): C (A compound having a KD ratio of 0.1 or more and less than 3 is denoted as C)
[2]
  HRAS/KRAS (ratio of KD for GDP-bound HRAS wild-type to KD for KRAS): B (a compound having 3 or more and less than 10 is denoted as B)

## CCCN1C(=O)CN(C)C(=O)CN(C)C(=O)[C@H]([C@@H](C)CC)NC(=O)[C@H](CC(C)C)N(C)C(=O)C[C@@H](C(=O)N2CCOCC2)N(C)C(=O)[C@H](C2CCCC2)N(C)C(=O)C2(CCCC2)NC(=O)CN(CC)C(=O)[C@H](CCc2ccc(C(F)(F)F)c(Cl)c2)NC(=O)CN(C)C(=O)[C@@H]1Cc1ccc(C(F)(F)F)cc1 [PP0144] ([NMeL]I[Sar][Sar][NPrPhe(4-CF3)][Sar][hPhe(3-Cl-4-CF3)][NEtG][Ac5c][NMeGly(cPent)][NMeD]-Morpholide; lactam N-11)
[1]
  NRAS/KRAS (ratio of KD for GDP-bound NRAS wild-type to KD for KRAS): B (a compound having 3 or more and less than 10 is denoted as B)
[2]
  HRAS/KRAS (ratio of KD for GDP-bound HRAS wild-type to KD for KRAS): C (A compound having a KD ratio of 0.1 or more and less than 3 is denoted as C)

## CCCN1C(=O)CN(C)C(=O)CN(CC)C(=O)[C@H]([C@@H](C)CC)NC(=O)[C@H](CC(C)C)N(C)C(=O)C[C@@H](C(=O)N2CCOCC2)N(C)C(=O)[C@H](C2CCCC2)N(C)C(=O)C2(CCCC2)NC(=O)[C@@H]2CCCN2C(=O)[C@H](CCc2ccc(C(F)(F)F)c(Cl)c2)NC(=O)CN(C)C(=O)[C@@H]1Cc1ccc(C(F)(F)F)cc1 [PP0145] ([NMeL]I[NEtG][Sar][NPrPhe(4-CF3)][Sar][hPhe(3-Cl-4-CF3)]P[Ac5c][NMeGly(cPent)][NMeD]-Morpholide; lactam N-11)
[1]
  NRAS/KRAS (ratio of KD for GDP-bound NRAS wild-type to KD for KRAS): B (a compound having 3 or more and less than 10 is denoted as B)
[2]
  HRAS/KRAS (ratio of KD for GDP-bound HRAS wild-type to KD for KRAS): B (a compound having 3 or more and less than 10 is denoted as B)

## CCCN1C(=O)CN(C)C(=O)CN(C)C(=O)[C@H]([C@@H](C)CC)NC(=O)[C@H](CC(C)C)N(C)C(=O)C[C@@H](C(=O)N2CCOCC2)NC(=O)[C@H](C2CCCC2)N(C)C(=O)C2(CCCC2)NC(=O)[C@@H]2CCCN2C(=O)[C@H](CCc2ccc(C(F)(F)F)c(Cl)c2)NC(=O)CN(C)C(=O)[C@@H]1Cc1ccc(C(F)(F)F)cc1 [PP0146] ([NMeL]I[Sar][Sar][NPrPhe(4-CF3)][Sar][hPhe(3-Cl-4-CF3)]P[Ac5c][NMeGly(cPent)]D-Morpholide; lactam N-11)
[1]
  NRAS/KRAS (ratio of KD for GDP-bound NRAS wild-type to KD for KRAS): B (a compound having 3 or more and less than 10 is denoted as B)
[2]
  HRAS/KRAS (ratio of KD for GDP-bound HRAS wild-type to KD for KRAS): B (a compound having 3 or more and less than 10 is denoted as B)

## CCCN1C(=O)CN(C)C(=O)CN(C)C(=O)[C@H]([C@@H](C)CC)NC(=O)[C@H](CC(C)C)N(C)C(=O)C[C@@H](C(=O)N2CCOCC2)N(C)C(=O)[C@H](C2CCCC2)N(C)C(=O)C2(CCCC2)NC(=O)[C@@H]2CCCN2C(=O)[C@H](CCc2ccc(C(F)(F)F)c(Cl)c2)NC(=O)[C@@H](C)N(C)C(=O)[C@@H]1Cc1ccc(C(F)(F)F)cc1 [PP0148] ([NMeL]I[Sar][Sar][NPrPhe(4-CF3)][dNMeA][hPhe(3-Cl-4-CF3)]P[Ac5c][NMeGly(cPent)][NMeD]-Morpholide; lactam N-11)
[1]
  NRAS/KRAS (ratio of KD for GDP-bound NRAS wild-type to KD for KRAS): B (a compound having 3 or more and less than 10 is denoted as B)
[2]
  HRAS/KRAS (ratio of KD for GDP-bound HRAS wild-type to KD for KRAS): B (a compound having 3 or more and less than 10 is denoted as B)

## CCCN1C(=O)CN(C)C(=O)CN(C)C(=O)[C@H]([C@@H](C)CC)NC(=O)[C@H](CC(C)C)N(C)C(=O)CC(C(=O)N2CCOCC2)N(C)C(=O)[C@H](C2CCCC2)N(C)C(=O)C2(CCCC2)NC(=O)[C@@H]2CCCN2C(=O)[C@H](CCc2ccc(C(F)(F)F)c(Cl)c2)NC(=O)C2CCCN2C(=O)[C@@H]1Cc1ccc(C(F)(F)F)cc1 (stereo partly drawn) [PP0149] ([NMeL]I[Sar][Sar][NPrPhe(4-CF3)][ξP][hPhe(3-Cl-4-CF3)]P[Ac5c][NMeGly(cPent)][ξNMeD]-Morpholide; lactam N-11)
[1]
  NRAS/KRAS (ratio of KD for GDP-bound NRAS wild-type to KD for KRAS): C (A compound having a KD ratio of 0.1 or more and less than 3 is denoted as C)
[2]
  HRAS/KRAS (ratio of KD for GDP-bound HRAS wild-type to KD for KRAS): B (a compound having 3 or more and less than 10 is denoted as B)

## CCCN1C(=O)CN(C)C(=O)CN(C)C(=O)[C@H]([C@@H](C)CC)NC(=O)[C@H](CC(C)C)N(C)C(=O)C[C@@H](C(=O)N2CCOCC2)N(C)C(=O)[C@H](C2CCCC2)N(C)C(=O)[C@@H](C)NC(=O)[C@@H]2CCCN2C(=O)[C@H](CCc2ccc(C(F)(F)F)c(Cl)c2)NC(=O)CN(C)C(=O)[C@@H]1Cc1ccc(C(F)(F)F)cc1 [PP0150] ([NMeL]I[Sar][Sar][NPrPhe(4-CF3)][Sar][hPhe(3-Cl-4-CF3)]P[dA][NMeGly(cPent)][NMeD]-Morpholide; lactam N-11)
[1]
  NRAS/KRAS (ratio of KD for GDP-bound NRAS wild-type to KD for KRAS): B (a compound having 3 or more and less than 10 is denoted as B)
[2]
  HRAS/KRAS (ratio of KD for GDP-bound HRAS wild-type to KD for KRAS): C (A compound having a KD ratio of 0.1 or more and less than 3 is denoted as C)

## CCCN1C(=O)[C@@H]2CCN2C(=O)[C@H](C)N(C)C(=O)[C@H]([C@@H](C)CC)NC(=O)[C@H](CC(C)C)N(CC)C(=O)C[C@@H](C(=O)N2CCOCC2)N(C)C(=O)[C@H](C2CCCC2)N(C)C(=O)C2(CCCC2)NC(=O)[C@@H]2CCCN2C(=O)[C@H](CCc2ccc(C(F)(F)F)c(Cl)c2)NC(=O)CN(C)C(=O)[C@@H]1Cc1ccc(C(F)(F)F)cc1 [PP0151] ([NEtLeu]I[NMeA][Aze][NPrPhe(4-CF3)][Sar][hPhe(3-Cl-4-CF3)]P[Ac5c][NMeGly(cPent)][NMeD]-Morpholide; lactam N-11)
[1]
  NRAS/KRAS (ratio of KD for GDP-bound NRAS wild-type to KD for KRAS): C (A compound having a KD ratio of 0.1 or more and less than 3 is denoted as C)
[2]
  HRAS/KRAS (ratio of KD for GDP-bound HRAS wild-type to KD for KRAS): C (A compound having a KD ratio of 0.1 or more and less than 3 is denoted as C)

## CCCN1C(=O)[C@@H]2CCN2C(=O)[C@H](C)N(CC)C(=O)[C@H]([C@@H](C)CC)NC(=O)[C@H](CC(C)C)N(C)C(=O)C[C@@H](C(=O)N2CCOCC2)N(C)C(=O)[C@H](C2CCCC2)N(C)C(=O)C2(CCCC2)NC(=O)[C@@H]2CCCN2C(=O)[C@H](CCc2ccc(C(F)(F)F)c(Cl)c2)NC(=O)CN(C)C(=O)[C@@H]1Cc1ccc(C(F)(F)F)cc1 [PP0152] ([NMeL]I[NEtAla][Aze][NPrPhe(4-CF3)][Sar][hPhe(3-Cl-4-CF3)]P[Ac5c][NMeGly(cPent)][NMeD]-Morpholide; lactam N-11)
[1]
  NRAS/KRAS (ratio of KD for GDP-bound NRAS wild-type to KD for KRAS): C (A compound having a KD ratio of 0.1 or more and less than 3 is denoted as C)
[2]
  HRAS/KRAS (ratio of KD for GDP-bound HRAS wild-type to KD for KRAS): B (a compound having 3 or more and less than 10 is denoted as B)

## CCCN1C(=O)[C@@H]2CCN2C(=O)[C@H](C)N(C)C(=O)[C@H]([C@@H](C)CC)NC(=O)[C@H](CC(C)C)N(C)C(=O)C[C@@H](C(=O)N2CCOCC2)N(C)C(=O)[C@H](C2CCCC2)N(C)C(=O)C2(CCCC2)NC(=O)[C@H](C)NC(=O)[C@H](CCc2ccc(C(F)(F)F)c(Cl)c2)NC(=O)CN(C)C(=O)[C@@H]1Cc1ccc(C(F)(F)F)cc1 [PP0153] ([NMeL]I[NMeA][Aze][NPrPhe(4-CF3)][Sar][hPhe(3-Cl-4-CF3)]A[Ac5c][NMeGly(cPent)][NMeD]-Morpholide; lactam N-11)
[1]
  NRAS/KRAS (ratio of KD for GDP-bound NRAS wild-type to KD for KRAS): C (A compound having a KD ratio of 0.1 or more and less than 3 is denoted as C)
[2]
  HRAS/KRAS (ratio of KD for GDP-bound HRAS wild-type to KD for KRAS): C (A compound having a KD ratio of 0.1 or more and less than 3 is denoted as C)

## CCCN1C(=O)[C@@H]2CCN2C(=O)[C@H](C)N(C)C(=O)[C@H]([C@@H](C)CC)NC(=O)[C@H](CC(C)C)NC(=O)C[C@@H](C(=O)N2CCOCC2)N(C)C(=O)[C@H](C2CCCC2)N(C)C(=O)C2(CCCC2)NC(=O)[C@@H]2CCCN2C(=O)[C@H](CCc2ccc(C(F)(F)F)c(Cl)c2)NC(=O)CN(C)C(=O)[C@@H]1Cc1ccc(C(F)(F)F)cc1 [PP0154] (LI[NMeA][Aze][NPrPhe(4-CF3)][Sar][hPhe(3-Cl-4-CF3)]P[Ac5c][NMeGly(cPent)][NMeD]-Morpholide; lactam N-11)
[1]
  NRAS/KRAS (ratio of KD for GDP-bound NRAS wild-type to KD for KRAS): C (A compound having a KD ratio of 0.1 or more and less than 3 is denoted as C)
[2]
  HRAS/KRAS (ratio of KD for GDP-bound HRAS wild-type to KD for KRAS): B (a compound having 3 or more and less than 10 is denoted as B)

## CCCN1C(=O)CN(C)C(=O)CNC(=O)[C@H]([C@@H](C)CC)NC(=O)[C@H](CC(C)C)N(C)C(=O)C[C@@H](C(=O)N2CCOCC2)N(C)C(=O)[C@H](C2CCCC2)N(C)C(=O)C2(CCCC2)NC(=O)[C@@H]2CCCN2C(=O)[C@H](CCc2ccc(C(F)(F)F)c(Cl)c2)NC(=O)CN(C)C(=O)[C@@H]1Cc1ccc(C(F)(F)F)cc1 [PP0155] ([NMeL]IG[Sar][NPrPhe(4-CF3)][Sar][hPhe(3-Cl-4-CF3)]P[Ac5c][NMeGly(cPent)][NMeD]-Morpholide; lactam N-11)
[1]
  NRAS/KRAS (ratio of KD for GDP-bound NRAS wild-type to KD for KRAS): B (a compound having 3 or more and less than 10 is denoted as B)
[2]
  HRAS/KRAS (ratio of KD for GDP-bound HRAS wild-type to KD for KRAS): C (A compound having a KD ratio of 0.1 or more and less than 3 is denoted as C)
